From US8486991B2, “Enantiomerically pure phosphoindoles as HIV inhibitors” (Idenix Pharmaceuticals, Inc., priority 2006, dated 2013)
Like-named read-outs stand apart in the source and are kept apart here.

Legend:
[1] = molecular target: T1, HIV-1 RT V106M mutant enzyme (Human immunodeficiency virus type 1 group M subtype B, UniProt P03366, V705M); assay: biochemical; settings: for Average Fold Changes ± Standard Deviation, V106M: Table 4
T1 construct: Antiviral in vitro activity against site-directed mutant HIV-1 RT enzymes
Excerpt: (§1) In Vitro Antiviral Activity Against Additional Mutant HIV RT Enzymes
(§2) The studies are summarized in the text that follows.

[2] = molecular target: T2, HIV-1 RT L1001/K103N (L100I/K103N) mutant enzyme (Human immunodeficiency virus type 1 group M subtype B, UniProt P03366, K702N/L699I); assay: biochemical; settings: for Average Fold Changes ± Standard Deviation, L1001/K103N: Table 4
T2 construct: Antiviral in vitro activity against site-directed mutant HIV-1 RT enzymes
Excerpt: as §1, §2

[3] = molecular target: T3, HIV-1 RT Y188L mutant enzyme (Human immunodeficiency virus type 1 group M subtype B, UniProt P03366, Y787L); assay: biochemical; settings: for Average Fold Changes ± Standard Deviation, Y188L: Table 4
T3 construct: Antiviral in vitro activity against site-directed mutant HIV-1 RT enzymes
Excerpt: as §1, §2

[4] = molecular target: T4, HIV-1 RT L1001 (L100I) mutant enzyme (Human immunodeficiency virus type 1 group M subtype B, UniProt P03366, L699I); assay: biochemical; settings: for Average Fold Changes ± Standard Deviation, L1001: Table 4
T4 construct: Antiviral in vitro activity against site-directed mutant HIV-1 RT enzymes
Excerpt: as §1, §2

[5] = molecular target: T5, HIV-1 RT E138K mutant enzyme (Human immunodeficiency virus type 1 group M subtype B, UniProt P03366, E737K); assay: biochemical; settings: for Average Fold Changes ± Standard Deviation, E138K: Table 4
T5 construct: Antiviral in vitro activity against site-directed mutant HIV-1 RT enzymes
Excerpt: as §1, §2

[6] = molecular target: T6, HIV-1 RT V1081 (V108I) mutant enzyme (Human immunodeficiency virus type 1 group M subtype B, UniProt P03366, V707I); assay: biochemical; settings: for Average Fold Changes ± Standard Deviation, V1081: Table 4
T6 construct: Antiviral in vitro activity against site-directed mutant HIV-1 RT enzymes
Excerpt: as §1, §2

HIV-2 ROD = HIV-2 ROD WT in H9 cell assay; type: cell-based
Procedure: The susceptibility of HIV type 2 ROD in H9 cells to Compound I and Compound III was determined against zidovudine (AZT) as a control.

CYP2D6 = CYP2D6 (Homo sapiens, UniProt P10635); assay: Recombinant CYP450 inhibition, fluorometric, CYP2D6; type: in vitro ADME; set-up: from tissue; host or cells: pooled human liver microsomes; settings: read-out: percentage of inhibition at the highest concentration tested, CYP2D6
Procedure: (§3) Compounds were assayed using recombinant human microsomal proteins with fluorometric substrates. Signal was measured with a Fusion plate reader utilizing the appropriate excitation and emission wavelength set to detect the specific metabolite: […]

CYP2B6 = molecular target: T7, CYP2B6 (Homo sapiens, UniProt P20813); assay: Recombinant CYP450 inhibition, fluorometric, CYP2B6; type: in vitro ADME; set-up: from tissue; host or cells: pooled human liver microsomes; settings: read-out: percentage of inhibition at the highest concentration tested, CYP2B6
T7 sequence (P20813 1-491): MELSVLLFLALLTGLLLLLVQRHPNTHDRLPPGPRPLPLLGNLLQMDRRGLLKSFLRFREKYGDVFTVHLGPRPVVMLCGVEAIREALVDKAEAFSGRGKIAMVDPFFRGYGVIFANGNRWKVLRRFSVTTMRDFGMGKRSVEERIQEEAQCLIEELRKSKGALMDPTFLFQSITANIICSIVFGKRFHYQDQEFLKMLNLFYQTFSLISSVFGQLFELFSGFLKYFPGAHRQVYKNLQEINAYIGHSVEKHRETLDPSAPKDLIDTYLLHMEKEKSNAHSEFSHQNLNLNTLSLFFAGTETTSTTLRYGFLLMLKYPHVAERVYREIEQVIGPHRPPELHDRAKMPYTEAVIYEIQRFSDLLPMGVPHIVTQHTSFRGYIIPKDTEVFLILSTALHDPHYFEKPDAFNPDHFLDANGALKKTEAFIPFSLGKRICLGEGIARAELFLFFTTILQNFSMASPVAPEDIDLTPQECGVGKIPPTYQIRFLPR
Procedure: as §3

CYP2C19 = CYP2C19 (Homo sapiens, UniProt P33261); assay: Human liver microsomal CYP450 inhibition, CYP2C19; settings: for IC50, CYP2C19: human liver microsomes
Procedure: (§4) In addition, the type of inhibition was also evaluated.
(§5) Enzyme kinetic studies of cytochrome P450 isozyme inhibition were conducted using human liver microsomes.

Sprague-Dawley rats = assay: 14-day oral toxicity, rats; type: in vivo, rat; settings: for thyroid microscopic findings / effects on food consumption or body weight: rats; for thyroid microscopic findings: all dose groups except low dose compound III-treated females; for effects on food consumption or body weight: once daily oral gavage 14 days, up to 500 (I) or 450 (III) mg/kg/day
Procedure: Sprague-Dawley rats and cynomolgus monkeys were dosed once daily for 14 days via oral gavage with compound I or compound III or dose vehicle (68% Capmul PG-8, 20% PEG 400, 2% Tween 20, and 10% Labrasol) according to GLP. There were 10 male and 10 female rats, and there were 3 male and 3 female monkeys. Rats and monkeys were dosed with 0, 50, 150 or 500 mg/kg/day compound I or with 0, 50, 150, 450 mg/kg/day compound III.
Toxicity was assessed using clinical observations, body weights, food consumption, and clinical pathology (hematology, coagulation, and serum chemistry).
A comprehensive necropsy and gross pathological examination was performed on all animals and selected organs and tissues were collected for histological evaluation.
Determinations of hematocrit, hemoglobin concentration, erythrocyte count, total leukocyte count, and platelet count were conducted on all samples. Leukocyte differential and morphologic assessments were performed.
Clinical biochemistry determinations included activities of alanine aminotransferase (ALT), aspartate aminotransferase (AST), gamma-glutamyltranspeptidase (GGT), and alkaline phosphatase (ALP) and concentrations of blood urea nitrogen (BUN), creatinine, total protein, albumin, globulin, glucose, cholesterol, triglycerides, total bilirubin, and electrolyte levels (Na, K, P, Cl, Ca).

CYP2C8 = molecular target: T8, CYP2C8 (Homo sapiens, UniProt P10632); assay: Human liver microsomal CYP450 inhibition, CYP2C8; settings: for Type of inhibition, CYP2C8 (Paclitaxel): human liver microsomes; for IC50: human, pooled human liver microsomes, probe paclitaxel
T8 sequence (P10632 1-490): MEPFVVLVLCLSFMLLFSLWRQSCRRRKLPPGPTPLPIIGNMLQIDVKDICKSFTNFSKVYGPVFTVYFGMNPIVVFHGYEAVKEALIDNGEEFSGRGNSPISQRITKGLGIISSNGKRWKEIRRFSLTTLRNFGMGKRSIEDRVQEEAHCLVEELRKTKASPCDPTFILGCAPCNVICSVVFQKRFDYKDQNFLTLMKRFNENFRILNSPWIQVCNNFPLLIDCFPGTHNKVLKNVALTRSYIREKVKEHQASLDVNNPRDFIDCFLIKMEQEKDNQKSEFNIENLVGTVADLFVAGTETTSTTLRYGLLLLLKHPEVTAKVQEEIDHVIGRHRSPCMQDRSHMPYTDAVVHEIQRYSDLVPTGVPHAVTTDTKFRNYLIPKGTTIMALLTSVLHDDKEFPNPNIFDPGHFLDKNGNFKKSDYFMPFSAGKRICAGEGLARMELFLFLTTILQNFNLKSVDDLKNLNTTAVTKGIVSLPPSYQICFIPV
Procedure: as §4, §5
Probe substrate for 2C8 was paclitaxel, probe substrate for 2C9 was diclofenac and for 3A4 probe substrates were midazolam and testosterone.

[7] = Table 18, highest concentration assayed 1.25 μM

Chain of CYP2C19 (P33261 whole entry): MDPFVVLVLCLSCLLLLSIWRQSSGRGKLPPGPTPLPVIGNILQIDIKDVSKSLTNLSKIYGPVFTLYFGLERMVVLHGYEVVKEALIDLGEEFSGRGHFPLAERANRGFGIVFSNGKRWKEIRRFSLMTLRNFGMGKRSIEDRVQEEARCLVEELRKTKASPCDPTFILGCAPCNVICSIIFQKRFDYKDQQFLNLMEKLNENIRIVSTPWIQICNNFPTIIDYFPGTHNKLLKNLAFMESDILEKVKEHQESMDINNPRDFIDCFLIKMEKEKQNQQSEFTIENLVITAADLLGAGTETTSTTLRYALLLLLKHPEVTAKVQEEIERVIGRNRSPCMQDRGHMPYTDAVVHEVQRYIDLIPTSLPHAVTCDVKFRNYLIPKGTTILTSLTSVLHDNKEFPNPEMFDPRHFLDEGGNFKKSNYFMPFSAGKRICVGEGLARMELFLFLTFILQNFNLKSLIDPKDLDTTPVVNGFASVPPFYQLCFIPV
Chain of CYP2D6 (P10635 whole entry, the tested form may be a part): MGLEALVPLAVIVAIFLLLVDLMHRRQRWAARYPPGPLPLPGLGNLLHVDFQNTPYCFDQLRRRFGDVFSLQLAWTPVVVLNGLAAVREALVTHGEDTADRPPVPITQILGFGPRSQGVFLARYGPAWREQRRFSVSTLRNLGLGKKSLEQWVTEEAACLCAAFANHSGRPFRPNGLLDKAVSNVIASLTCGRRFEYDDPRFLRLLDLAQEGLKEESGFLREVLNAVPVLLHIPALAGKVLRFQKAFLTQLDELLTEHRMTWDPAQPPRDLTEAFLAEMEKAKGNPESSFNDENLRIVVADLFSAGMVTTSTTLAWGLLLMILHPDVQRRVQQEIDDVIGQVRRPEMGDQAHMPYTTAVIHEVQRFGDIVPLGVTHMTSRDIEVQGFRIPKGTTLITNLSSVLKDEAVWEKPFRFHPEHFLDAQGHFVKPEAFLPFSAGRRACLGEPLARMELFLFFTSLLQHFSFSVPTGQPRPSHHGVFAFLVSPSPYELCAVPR

Compound | IC50 [1] | Average Fold Changes ± Standard Deviation, V106M [1] | IC50 [2] | Average Fold Changes ± Standard Deviation, L1001/K103N [2] | IC50 [3] | Average Fold Changes ± Standard Deviation, Y188L [3] | IC50 [4] | Average Fold Changes ± Standard Deviation, L1001 [4] | IC50 [5] | Average Fold Changes ± Standard Deviation, E138K [5] | IC50 [6] | Average Fold Changes ± Standard Deviation, V1081 [6] | EC50 Values (HIV-2 ROD; [7]) | IC50 (CYP2C19) | IC50, CYP2C19 (CYP2C19) | thyroid microscopic findings (Sprague-Dawley rats) | effects on food consumption or body weight (Sprague-Dawley rats) | Ki (CYP2C8) | Type of inhibition, CYP2C8 (Paclitaxel) (CYP2C8) | IC50 (CYP2C8) | further results
CO[P@](=O)(c1cc(C)cc(/C=C/C#N)c1)c1c(C(N)=O)[nH]c2ccc(Cl)c(F)c12 [Compound I, (2-Carbamoyl-5-chloro-4-fluoro-1H-indol-3-yl)-[3-((E)-2-cyano-vinyl)-5-methyl-phenyl]-(R)-phosphinic acid methyl ester] | 230 ± 60 nM | 1.2 ± 0.5 fold | 430 ± 330 nM | 2.4 ± 1.2 fold | 1250 ± 380 nM | 6.0 ± 1.7 fold | 160 ± 30 nM | 0.5 ± 0.2 fold | 4670 ± 910 nM | 15.5 ± 6.8 fold | 1200 ± 710 nM | 4.0 ± 5.3 fold | failed to suppress HIV-2 ROD replication | 10200 nM | not observed | minimal to mild thyroid follicular cell hypertrophy/hyperplasia | No effects | 1100 nM | competitive inhibition | < 10000 nM | EC50 (HIV-2 ROD; Human immunodeficiency virus 2, H9, read-out: EC50 Values): > 1250 nM; inhibition at 10 µM (CYP2D6; recombinant enzyme): 11.2%; inhibition at 20 µM (CYP2B6; recombinant enzyme): 21.6%; Type of inhibition, CYP2C8 (Paclitaxel) (CYP2C8; listed as compound I): competitive inhibition
CO[P@](=O)(c1cc(C)cc(/C=C/C#N)c1)c1c(C(N)=O)[nH]c2ccc(Cl)cc12 [Compound III, (2-Carbamoyl-5-chloro-1H-indol-3-yl)-[3-((E)-2-cyano-vinyl)-5-methyl-phenyl]-(R)-phosphinic acid methyl ester] | 200 ± 60 nM | 1.0 ± 0.3 fold | 400 ± 260 nM | 1.8 ± 0.8 fold | 1150 ± 360 nM | 7.0 ± 5.9 fold | 130 ± 60 nM | 0.6 ± 0.6 fold | 2990 ± 180 nM | 13.7 ± 1.9 fold | 830 ± 350 nM | 3.8 ± 3.8 fold | failed to suppress HIV-2 ROD replication | 10200 nM | not observed | minimal to mild thyroid follicular cell hypertrophy/hyperplasia | No effects | 660 nM | competitive inhibition | < 10000 nM | EC50 (HIV-2 ROD; Human immunodeficiency virus 2, H9, Table 18, highest concentration assayed 1.25 μM, read-out: EC50 Values): > 1250 nM; inhibition at 10 µM (CYP2D6; recombinant human CYP2D6 microsomal protein): 15.2%; inhibition at 20 µM (CYP2B6; recombinant human CYP2B6 microsomal protein): 22.9%; organ weights (Sprague-Dawley rats; rats (females only), mid and high doses, livers microscopically unremarkable): increased liver weights; Type of inhibition, CYP2C8 (Paclitaxel) (CYP2C8; listed as compound III): competitive inhibition
